The target in one data set is T1, CYP2B6 (Homo sapiens, UniProt P20813).
T1 construct: expressed in transfected cells
T1 sequence (P20813 1-491): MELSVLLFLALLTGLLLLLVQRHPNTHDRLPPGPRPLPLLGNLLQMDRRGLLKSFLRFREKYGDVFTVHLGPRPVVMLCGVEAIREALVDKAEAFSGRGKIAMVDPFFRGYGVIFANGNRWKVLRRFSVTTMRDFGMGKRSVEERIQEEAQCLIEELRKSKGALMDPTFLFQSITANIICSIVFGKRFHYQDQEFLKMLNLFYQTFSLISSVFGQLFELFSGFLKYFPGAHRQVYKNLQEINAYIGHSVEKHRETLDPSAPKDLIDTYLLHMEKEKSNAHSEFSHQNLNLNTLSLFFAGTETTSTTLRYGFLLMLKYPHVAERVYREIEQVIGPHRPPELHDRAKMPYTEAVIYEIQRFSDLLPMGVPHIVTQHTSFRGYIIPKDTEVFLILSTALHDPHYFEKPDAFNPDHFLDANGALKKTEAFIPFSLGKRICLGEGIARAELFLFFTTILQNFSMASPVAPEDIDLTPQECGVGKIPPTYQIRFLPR
Briefly: Kinetic analysis, 7-ethoxycoumarin O-deethylase activity in Hepc/2B6.68. Format: cell-based. How it is done: The reaction solution was diluted to 10-fold with 0.1M Tris-HCl (pH 7.4) and fluorescent intensity was measured at an excited wavelength of 390 nm and a fluorescence wavelength of 440 nm, using a spectrofluorometer (Hitatchi Spectrofluorometer F-2000) to quantify 7-hydroxycoumarin formed. The product purchased from Extrasynthese was used as the standard substance for 7-hydroxycoumarin.

Data set [1] deals with CYP2E1-expressing cells (Hepc/2E1.3-8). The experiment in a line: LDH leakage test, acetaminophen in CYP2E1-expressing cells. It is filed as cell-based, human. How it is done: (§1) Two plates each with the same design as in the MTT assay were prepared (for determination of LDH activity in the culture supernatant and for determination of LDH activity in the culture supernatant+LDH activity in the cells). After incubating for 3 days in a CO2 incubator, 10 μl of the supernatant was taken from each well of one plate (for determination of LDH activity in the supernatant), transferred to another 96-well plate, and 40 μl of distilled water was further added. On the other hand, 10 μl of 10% Triton X100 (Wako Junyaku K. K. ) was added to each well of another plate (for determination of LDH activity in the culture supernatant+LDH activity in the cells), followed by shaking and incubation at 37° C. for 45 minutes. After centrifuging at 1500 rpm for 5 minutes, 10 μl of the supernatant was taken from each well, transferred to another 96-well plate, and 40 μl of distilled water was further added. The LDH activity of each well in these plates was measured using Cytotox 96 Non-Radioactive Cytotoxicity Assay Kit (Promega). Multiscanning MS-UV was used for the measurement of absorbance. A ratio of the LDH activity in the supernatant to (the LDH activity in the supernatant+ the LDH activity in the cells) was made an LDH leakage rate.

In data set [2] the test system is HepG2. The experiment in a line: LDH leakage test, acetaminophen in HepG2. It is filed as cell-based, human. How it is done: as §1
Data set [3] concerns CYP2E1-expressing cells (Hepc/2E1.3-8). Briefly: MTT assay, cytotoxicity of acetaminophen in CYP2E1-expressing cells. It is filed as cell-based, human. The note with it: 4 days incubation (FIG. 1). How it is done: (§2) HepG2 or CYP2E1-expressing cells (Hepc/2E1.3-8) (4×10^5 cells/ml) were incubated with acetaminophen (Wako Junyaku K. K. ) diluted to a given concentration in DMEM medium supplemented with 5% FCS in a CO2 incubator. In the test to terminate glutathione conjugation, L-Buthionine [S,R]-Sulfoximine (BSO, Sigma) was added to the medium in a final concentration of 100 μM. After incubation for 4 days, 20 μl of a solution of 3-(4,5-dimethyl-2-thiazolyl)-2,5-diphenyl-2H-tetrazolium bromide (MTT, Sigma) adjusted to 1 mg/ml with PBS (Flow) was added to each well followed by incubation at 37° C. for 3 hours. Next, 100 μl of 0.01N HCl solution containing 10% SDS was added to each well. After incubation at 37° C. overnight, absorbance was measured at 590 nm.

The test system of data set [4] is HepG2. The experiment in a line: MTT assay, cytotoxicity of acetaminophen in HepG2. It is filed as cell-based, human. The note with it: HepG2, without BSO, 4 days incubation (FIG. 1). How it is done: as §2
In the next data set the target is T2, CYP2A6 (Homo sapiens, UniProt P11509).
T2 construct: expressed in transfected cells
T2 sequence (P11509 1-494): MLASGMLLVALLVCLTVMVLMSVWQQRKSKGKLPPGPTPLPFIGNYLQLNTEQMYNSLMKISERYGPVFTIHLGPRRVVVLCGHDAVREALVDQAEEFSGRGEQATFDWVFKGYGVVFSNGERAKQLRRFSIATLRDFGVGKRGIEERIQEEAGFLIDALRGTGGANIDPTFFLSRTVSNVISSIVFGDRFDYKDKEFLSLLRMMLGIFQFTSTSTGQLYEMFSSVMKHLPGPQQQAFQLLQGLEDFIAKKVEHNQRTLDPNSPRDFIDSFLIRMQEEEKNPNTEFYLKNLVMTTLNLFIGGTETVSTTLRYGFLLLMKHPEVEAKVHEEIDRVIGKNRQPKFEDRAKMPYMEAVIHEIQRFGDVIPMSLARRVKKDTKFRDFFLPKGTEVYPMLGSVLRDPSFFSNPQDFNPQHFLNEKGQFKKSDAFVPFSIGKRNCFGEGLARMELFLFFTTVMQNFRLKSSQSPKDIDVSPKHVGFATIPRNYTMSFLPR
Briefly: Kinetic analysis, coumarin 7-hydroxylase activity in Hepc/2A6L.9. It is filed as cell-based. The text has this: The product purchased from Extrasynthese was used as the standard substance for 7-hydroxycoumarin.

Data set [5] has as its system HepG2. The note with it: HepG2, 4 days incubation (printed FIG. 4).
Description: (§3) After incubation for 4 days, 20 μl of a MTT (Sigma) solution adjusted to 1 mg/ml with PBS (Flow) was added to each well followed by incubation at 37° C. for 3 hours. Next, 100 μl of 0.01N HCl solution containing 10% SDS was added to each well. After incubation at 37° C. overnight, absorbance was measured at 590 nm.
Two plates each with the same design as in the MTT assay were prepared (for determination of LDH activity in the culture supernatant and for determination of LDH activity in the culture supernatant+LDH activity in the cells). After incubating for 4 days in a CO2 incubator, 10 μl of the supernatant was taken from each well of one plate (for determination of LDH activity in the supernatant), transferred to another 96-well plate, and 40 μl of distilled water was further added. On the other hand, 10 μl of 10% Triton X100 was added to each well of another plate (for determination of LDH activity in the culture supernatant+LDH activity in the cells), followed by shaking and incubation at 37° C. for 45 minutes. After centrifuging at 1500 rpm for 5 minutes, 10 μl of the supernatant was taken from each well, transferred to another 96-well plate, and 40 μl of distilled water was further added. The LDH activity of each well in these plates was measured using Cytotox 96 Non-Radioactive Cytotoxicity Assay Kit (Promega). Multiscanning MS-UV was used for the measurement of absorbance. […]
Data set [6] deals with CYP2B6-expressing cells (Hepc/2B6.68). The note with it: Hepc/2B6.68, 4 days incubation; plateau above 2 mM.
Description: Two plates each with the same design as in the MTT assay were prepared (for determination of LDH activity in the culture supernatant and for determination of LDH activity in the culture supernatant+LDH activity in the cells). After incubating for 4 days in a CO2 incubator, 10 μl of the supernatant was taken from each well of one plate (for determination of LDH activity in the supernatant), transferred to another 96-well plate, and 40 μl of distilled water was further added. On the other hand, 10 μl of 10% Triton X100 was added to each well of another plate (for determination of LDH activity in the culture supernatant+LDH activity in the cells), followed by shaking and incubation at 37° C. for 45 minutes. After centrifuging at 1500 rpm for 5 minutes, 10 μl of the supernatant was taken from each well, transferred to another 96-well plate, and 40 μl of distilled water was further added. The LDH activity of each well in these plates was measured using Cytotox 96 Non-Radioactive Cytotoxicity Assay Kit (Promega). Multiscanning MS-UV was used for the measurement of absorbance. A ratio of the LDH activity in the supernatant to (the LDH activity in the supernatant + the LDH activity in the cells) was made an LDH leakage rate.
Data set [7] has the same test system. Particulars: Hepc/2B6.68, 4 days incubation (printed FIG. 5).
Description: as §3
The next data set concerns the target CYP2E1 (Homo sapiens, UniProt P05181). The note with it: Hepc/2E1.3-8 cells incubated 3 days with the substance; 500 μM p-nitrophenol (FIG. 7).
Another data set addresses CYP3A4 (Homo sapiens, UniProt P08684). The experiment in a line: Kinetic analysis, testosterone 6β-hydroxylase activity in Hepc/3A4.5. How it is done:
Subsequently, testosterone previously diluted to 100 μM was added in 500 μl/well.
A program was made up to set for a linear gradient of 0-100% solution B in 0-20 minutes, 100% solution B in 20-30 minutes and since then 100% solution.

The test system of data set [8] is CYP1A1-expressing cells (Hepc/1A1.4). Briefly: MTT assay, cytotoxicity of benzanthracene in CYP1A1-expressing cells. It is filed as cell-based, human. The note with it: Hepc/1A1.4 compared with HepG2, 4 days incubation, concentration-dependent (FIG. 3).
Description: CYP1A1-expressing cells (Hepc/1A1.4) (4×10^5 cells/ml) were incubated with benzanthracene (Sigma) diluted to a given concentration in DMEM medium supplemented with 5% FCS in a CO2 incubator. After incubation for 4 days, 20 μl of a MTT (Sigma) solution adjusted to 1 mg/ml with PBS (Flow) was added to each well followed by incubation at 37° C. for 3 hours. Next, 100 μl of 0.01N HCl solution containing 10% SDS was added to each well. After incubation at 37° C. overnight, absorbance was measured at 590 nm.

This note sets out measurements from patent US6756229B1, “Human cell line showing stable expression of cytochromes P450” (Takeda Chemical Industries, Ltd., priority 1999, dated 2004).

Chain of CYP3A4 (P08684 whole entry): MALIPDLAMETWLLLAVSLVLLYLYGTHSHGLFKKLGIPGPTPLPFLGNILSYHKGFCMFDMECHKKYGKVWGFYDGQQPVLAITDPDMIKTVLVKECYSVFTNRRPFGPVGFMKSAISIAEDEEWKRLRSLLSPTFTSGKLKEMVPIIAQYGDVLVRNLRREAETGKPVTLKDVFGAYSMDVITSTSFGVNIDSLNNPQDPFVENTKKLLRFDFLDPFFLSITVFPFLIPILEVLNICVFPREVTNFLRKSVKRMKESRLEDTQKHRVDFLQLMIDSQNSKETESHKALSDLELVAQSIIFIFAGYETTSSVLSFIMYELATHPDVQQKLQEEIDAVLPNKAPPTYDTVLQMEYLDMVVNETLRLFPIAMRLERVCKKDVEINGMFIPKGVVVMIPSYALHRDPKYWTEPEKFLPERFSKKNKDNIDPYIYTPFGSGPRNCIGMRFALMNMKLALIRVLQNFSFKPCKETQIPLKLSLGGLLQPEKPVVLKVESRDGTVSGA
Chain of CYP2E1 (P05181 whole entry): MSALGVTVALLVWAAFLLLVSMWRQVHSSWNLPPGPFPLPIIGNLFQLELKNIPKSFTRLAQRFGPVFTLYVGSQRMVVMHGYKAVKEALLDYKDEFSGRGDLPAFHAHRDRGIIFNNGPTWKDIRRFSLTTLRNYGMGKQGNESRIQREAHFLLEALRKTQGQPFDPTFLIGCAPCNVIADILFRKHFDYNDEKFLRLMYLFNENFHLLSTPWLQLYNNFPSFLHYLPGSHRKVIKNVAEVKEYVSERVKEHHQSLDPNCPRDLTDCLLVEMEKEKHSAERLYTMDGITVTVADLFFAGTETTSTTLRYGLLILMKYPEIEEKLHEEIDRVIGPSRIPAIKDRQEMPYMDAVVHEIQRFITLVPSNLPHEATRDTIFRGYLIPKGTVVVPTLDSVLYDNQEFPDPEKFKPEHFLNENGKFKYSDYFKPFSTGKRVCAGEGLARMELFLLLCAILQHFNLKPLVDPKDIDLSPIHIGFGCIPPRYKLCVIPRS

On to `CCOc1ccc2ccc(=O)oc2c1` [7-ethoxycoumarin], for which the Vmax on CYP2B6 (Lineweaver-Burk plot) is listed as 80 pmol/min/mg. Further, the Km at CYP2B6 (human, Hepc/2B6.68 cells expressing CYP2B6, Lineweaver-Burk plot) came out at 81 µM.
`CC(=O)Nc1ccc(O)cc1` [Acetaminophen, acetaminophen]: in data set [1] (Hepc/2E1.3-8 + 100 μM BSO (glutathione exhausted), versus without BSO), the “enhancement of sensitivity to acetaminophen in the presence of BSO (LDH leakage)” value was “approximately 4 times”. The “leakage of LDH” value is “slight leakage of LDH” in [1] (Hepc/2E1.3-8, without BSO, 3 days incubation (FIG. 2)) and “slight leakage of LDH” in the data set with HepG2 [2] (HepG2, without BSO, 3 days incubation (FIG. 2)). The “effect of the presence of BSO on LDH leakage” value in the data set on HepG2 [2] (HepG2 + 100 μM BSO (FIG. 2)) is “Any effect expected in the presence of BSO was not noted”. In [3] (Hepc/2E1.3-8 + 100 μM BSO), the “MTT activity in the presence of BSO” value is “increased sensitivity to acetaminophen”. Further, the MTT activity entry is on record as “slight decrease of the MTT activity” in data set [3] (Hepc/2E1.3-8, without BSO) and “slight decrease of the MTT activity” with HepG2 [4].
As for `O=c1ccc2ccccc2o1` [Coumarin], the Vmax at CYP2A6 (Lineweaver-Burk plot) is 412 pmol/min/mg. The Km at CYP2A6 (human, Hepc/2A6L.9 cells expressing CYP2A6, Lineweaver-Burk plot) amounted to 11.1 µM.
With `O=P1(N(CCCl)CCCl)NCCCO1` (stereo not shown) [Cyclophosphamide, cyclophosphamide], the cytotoxicity result in the data set with HepG2 [5] is recorded as “slightly cytotoxic”. For the same molecule, the “leakage of LDH” value in [6] is reported as “concentration-dependently in the concentration up to 2 mM”. In addition, the MTT activity entry in [7] is “slight decrease of the MTT activity concentration-dependently”.
For the molecule `C[S+](C)[O-]` [DMSO, dimethylsulfoxide], the “CYP2E1 activity induction (p-nitrophenol hydroxylation, 4-nitrocatechol formed)” value on CYP2E1 was “the enzyme activity increases”.
`C[C@]12CC[C@H]3[C@@H](CCC4=CC(=O)CC[C@@]43C)[C@@H]1CC[C@@H]2O` [Testosterone]: on CYP3A4 (Hepc/3A4.5, testosterone 6β-hydroxylase activity, Lineweaver-Burk plot), the Vmax is given as 71 pmol/min/mg. For the same molecule, the Km at CYP3A4 (human, Hepc/3A4.5 cells expressing CYP3A4) was found to be 96 µM.
Consider `c1ccc2cc3c(ccc4ccccc43)cc2c1` [benzanthracene], for which, in [8], the “reduction in the MTT activity” value was “more potent reduction in the MTT activity”.
`CCO` [ethanol]: the “CYP2E1 activity induction (p-nitrophenol hydroxylation, 4-nitrocatechol formed)” value on CYP2E1 is recorded as “the enzyme activity increases”.
